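Growth conditions: 96-well plates. Treatment: test compound, 48 hours, 5 concentrations. Analysis: linear interpolation between bracketing concentrations; unreached endpoints set to highest concentration. GI50 marks 50% less growth. TGI denotes the concentration required for complete inhibition of growth.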
Legend:
Test in all cases: DTP human tumour cell line panel, 48 h
[1] = tested on: SK-MEL-2 melanoma
[2] = tested on: HOP-92 NSCLC
[3] = tested on: OVCAR-4 ovarian
[4] = tested on: MDA-MB-435
[5] = tested on: CAKI-1 renal
[6] = tested on: M14 melanoma
[7] = tested on: LOX IMVI melanoma
[8] = tested on: T-47D breast
[9] = tested on: SF-268 CNS
[10] = tested on: OVCAR-3 ovarian
[11] = tested on: 786-0 renal

| SMILES | TGI [1] | TGI [2] | TGI [3] | TGI [4] | TGI [5] | TGI [6] | TGI [7] | TGI [8] | TGI [9] | TGI [10] | TGI [11] | GI50 [2] | GI50 [3] | GI50 [4] | GI50 [5] | GI50 [8] | GI50 [10] |
| --- | --- | --- | --- | --- | --- | --- | --- | --- | --- | --- | --- | --- | --- | --- | --- | --- | --- |
| CS(C)(=O)=N/C=C\C(=O)C(Cl)(Cl)Cl | > 100 µM | > 100 µM | > 100 µM | > 100 µM | > 100 µM | > 100 µM | > 100 µM | > 100 µM | > 100 µM | > 100 µM | > 100 µM |  |  |  |  |  |  |
| C=C1CC(OC(C)=O)/C=C(/C)CCC(C(C)(C)O)CC1O (stereo not given) | > 100 µM | > 100 µM | > 100 µM | > 100 µM | > 100 µM | > 100 µM | > 100 µM | > 100 µM | > 100 µM | > 100 µM | > 100 µM |  |  |  |  |  |  |
| CCN(CC)CCN1C(=O)c2cccc3c(-c4ccc5c(c4)ncn5C4CCCCC4)ccc(c23)C1=O |  | 1.65 µM | 4.56 µM | 3.22 µM | 5.45 µM |  |  | 6.22 µM |  | 3.64 µM |  | 0.372 µM | 1.07 µM | 1.68 µM | 1.71 µM | 1.65 µM | 1.73 µM |
| C1CNCCN2CCCNCCN(C1)CC2 | > 100 µM | > 100 µM | > 100 µM | > 100 µM | > 100 µM | > 100 µM | > 100 µM | > 100 µM | > 100 µM | > 100 µM | > 100 µM |  |  |  |  |  |  |
| CN(c1c(Cl)cccc1Cl)S(=O)(=O)c1ccccc1[N+](=O)[O-] | > 100 µM |  | > 100 µM | > 100 µM | > 100 µM | > 100 µM | > 100 µM | > 100 µM | > 100 µM | > 100 µM | > 100 µM |  |  |  |  |  |  |
| Nc1[nH]c(=O)nc2sc3c(c12)CCCC3 | > 100 µM | > 100 µM | > 100 µM |  |  | > 100 µM |  | > 100 µM | > 100 µM |  | > 100 µM |  |  |  |  |  |  |
| C#CCNC(=O)CCC(N)C(=O)O (stereo not given) | > 100 µM | > 100 µM | > 100 µM |  | > 100 µM |  | > 100 µM |  | > 100 µM | > 100 µM |  |  |  |  |  |  |  |
| CN(C)c1nc(N(C)C)nc(N(C)CN(C)c2ccccc2)n1 | > 100 µM |  | > 100 µM |  |  |  | > 100 µM |  | > 100 µM | > 100 µM |  |  |  |  |  |  |  |
| CC(=O)OCC1C(C(C)OC(C)=O)CCC2C1CCC1(C)C(OC(C)=O)CCC21 (stereo not given) |  | 37.4 µM | 39.6 µM | 34.6 µM | > 100 µM | 31.9 µM | 27.9 µM | 65.7 µM | 52.5 µM | 41.9 µM | 49.5 µM |  |  |  |  |  |  |
| CN(C)C(=S)Nc1nnc(NC23CC4CC(CC(C4)C2)C3)s1 | 44.7 µM |  | 32.4 µM |  | 68.8 µM | 29.7 µM | 33.8 µM |  | 48.5 µM | 46.3 µM | 38.2 µM |  |  |  |  |  |  |
| O=C(N=Nc1ccc([N+](=O)[O-])cc1)NNc1ccc([N+](=O)[O-])cc1 | 28.9 µM |  | 44.8 µM | 57.5 µM | > 100 µM | 31 µM | 24.4 µM | 25.2 µM | 80.1 µM | 59.2 µM | 27 µM |  |  |  |  |  |  |
| NNC(N)=Nc1cccc2ccccc12 |  | 92.4 µM | > 100 µM | > 100 µM |  | > 100 µM |  | > 100 µM | > 100 µM |  | > 100 µM |  |  |  |  |  |  |
| C=C1C(=O)OC2/C=C(\C)CC/C=C(/C)CC(OC(=O)/C(=C/CO)CO)C12 (stereo not given) | 64 µM | 59.9 µM | > 100 µM | 82.5 µM | 34 µM | 39 µM | 81.5 µM |  | 77.5 µM | > 100 µM | 88.8 µM |  |  |  |  |  |  |
| O=C(O)CC(NC(=O)C(F)(F)F)C(=O)NC1Cc2ccccc2OC1=O (stereo not given) | > 100 µM |  |  | > 100 µM | > 100 µM | > 100 µM |  |  | > 100 µM | > 100 µM | > 100 µM |  |  |  |  |  |  |
| CCCCCCc1nn2c(-c3ccc(C)cc3)nnc2s1 | > 100 µM |  | > 100 µM | > 100 µM | > 100 µM | > 100 µM |  | > 100 µM | > 100 µM | > 100 µM | > 100 µM |  |  |  |  |  |  |
| CSCCC(NC(=O)C(Cc1ccccc1)NC(=O)CNC(=O)CNC(=O)C(N)Cc1ccc(O)cc1)C(=O)O (stereo not given) | > 100 µM | > 100 µM | > 100 µM |  | > 100 µM |  | > 100 µM |  | > 100 µM | > 100 µM |  |  |  |  |  |  |  |
| Cc1cccc2c1Oc1cc(Cl)ccc1C2NC(=O)CCN1CCCCC1 (stereo not given) |  | 10.1 µM | 30.9 µM | 30.7 µM |  | 34 µM | 30.2 µM | 29.8 µM | 83.2 µM |  | 28 µM |  |  |  |  |  |  |

— PubChem BioAssay (NCI)
